Data set [1] in a line: Spectroscopic properties of ZnODPc (absorption, fluorescence). It is filed as physicochemical. How it is done:
The fluorescence emission maximum, excited at 703 nm is at 712 nm.
(§1) In this investigation female Balb/c mice 20-22 g bearing a MS-2 fibrosarcoma intramuscularly implanted into the hind right leg were used as an animal model. On the 7th day after transplantation when the tumour diameter was 0.6-0.8 cm and no spontaneous necrosis could be detected, the mice were injected with 1.2 or 2.4 mg/kg ZnODPc incorporated into Cremophor emulsions. The preparation and characterisation of such emulsions has been described by L. Polo et al Cancer Lett. 66: 217-223, 1992. The amount of injected ZnODPc was estimated by diluting a known aliquot of the phthalocyanine-containing emulsion into THF and reading the absorbance at 701 nm (molar absorption coefficient 2.01×10^5 dm^3 mol^-1 cm^-1).

Data set [2] can be described thus: Singlet oxygen generation (luminescence at 1270 nm). It counts as physicochemical. As for the experimental part: (§2) Triplet state studies were carried out using laser flash photolysis. Samples were prepared in a 1% pyridine in toluene solution; by preparing such a solution then it is believed that aggregation of the phthalocyanine cores is avoided. The solution was prepared so that an optical density of 0.2-0.3 at the excitation wavelength was obtained. Samples were irradiated by an excimer pumped dye laser at 355 nm and the transients monitored with the use of a quartz halogen lamp. Triplet quantum yields were calculated using ZnTPP and ZnPc as standards. The triplet quantum yield is the quantum yield of conversion from the excited singlet state to the triplet state.
The generation of singlet oxygen by the phthalocyanines was also studied. The method of detection of the singlet oxygen involved measuring the intensity of luminescence at 1270 nm, corresponding to the forbidden transition from the excited singlet back down to the ground state, with a liquid nitrogen cooled germanium detector. Aerated samples were irradiated with the same system as described for the triplet state studies. Standards used were ZnTPP, ZnPc and anthracene.
The data in Table 3 are means of no less than four independent runs, except for compounds 8 and 9 were run once.
The properties of the decomposition products arising from irradiation of the phthalocyanines were investigated.

A short description of data set [3]: Triplet state studies by laser flash photolysis. It counts as physicochemical. As to conditions: 1% pyridine in toluene, excitation 355 nm; for Triplet Quantum Yield: means of no less than four runs, compounds 8 and 9 run once. How it is done:
as §2
Compound example 10 is unsubstituted zinc phthalocyanine (ZnPc); this is included in the Table for means of comparison.
The data in Table 2 are means of no less than four independent runs, except for compounds 8 and 9 which were run once.

On the set-up of data set [4]: species or system female Balb/c mice. As to conditions: mouse, in vivo. How it is done:
In this investigation female Balb/c mice 20-22 g bearing a MS-2 fibrosarcoma intramuscularly implanted into the hind right leg were used as an animal model. On the 7th day after transplantation when the tumour diameter was 0.6-0.8 cm and no spontaneous necrosis could be detected, the mice were injected with 1.2 or 2.4 mg/kg ZnODPc incorporated into Cremophor emulsions. The preparation and characterisation of such emulsions has been described by L. Polo et al Cancer Lett. 66: 217-223, 1992. The amount of injected ZnODPc was estimated by diluting a known aliquot of the phthalocyanine-containing emulsion into THF and reading the absorbance at 701 nm (molar absorption coefficient 2.01×10^5 dm^3 mol^-1 cm^-1). The tumour-bearing mice were injected with 1.2 mg/kg ZnODPc in the tail vein. At 3 hours and 24 hours after administration, groups of three mice were sacrificed by prolonged exposure to ether vapours, the tumour and selected normal tissues (muscle, skin, liver and kidneys) were excised, washed with phosphate buffered saline (PBS) and assayed for the phthalocyanine content by spectrofluorimetric analysis after chemical extraction, see Reddi et al Br. J. Cancer 61: 407-411, 1990; typically a weighted amount of tissue was homogenized in 3 ml of 2% aqueous sodium dodecyl sulphate (SDS); the homegenate was incubated for 1 hour at room temperature under gentle magnetic stirring and 1 ml of the suspension was added with 2 ml of THF, centrifuged at 10 mins at 3000 rpm; the supernatant was collected and its fluorescence intensity was determined in the 670-770 nm interval (excitation at 650 nm). The fluorescence intensity was converted into ZnODPc concentration by interpolation with a calibration plot. Samples of blood were taken from the sacrificed animals, centrifuged to separate the erythocytes and the serum (50 μl) thus collected was diluted with 2% aqueous SDS (700 μl), added with 1.5 ml of THF and centrifuged for 10 mins at 3000 rpm. The ZnODPc concentration in the supernatant was determined by fluorescence spectroscopy as specified above. Special attention was focussed on the phthalocyanine content in the muscle which is the peritumoural tissue in the animal model exemplified in this study and the skin because of the frequent onset of persistent cutaneous photosensitivity in PDT patients. The determination of ZnODPc accumulation in liver and kidneys can provide useful information on the modality of its elimination from the organism. Analyses were carried out at 3 h intervals after photosensitizer injection and at 24 h which is generally considered to be the usual time interval for PDT treatment.

The subject of another data set is MS-2 fibrosarcoma. The data set is described as follows: Phototherapeutic studies: tumour response to PDT (visual observation, electron microscopy). It counts as in vivo, female Balb/c mice. How it is done:
as §1
The tumour bearing mice were injected with 2.4 mg/kg ZnODPc and after 24 h were irradiated by 600-700 nm light which was isolated from the emission of a quartz-halogen lamp (Teclas, Lugano Switzerland) by optical filtering. The light beam was focussed into a bundle of optical fibres, whose tip was positioned at a 1 cm distance from the tumour surface. The lamp was operated at 230 mW/cm^2 for a total delivered light dose of 400 J/cm^2.
The tumour response was analyzed by visual observation, as well as by electron microscopy studies on tumour specimens taken at 6 h and 24 h after the end of the PDT. The procedure for the preparation of the samples and ultra structural determinations was performed as described by Milanesi et al. Br. J. Cancer 61: 846-850, 1990.
At the same time endocytoplasmic vacuolisation 6 is frequently observed with some completely necrotic cells and loss of the organised tissue structure.

The conditions of data set [5]: ethanolic solution; Valduga et al 1988; cited from earlier work.
The mark [6] stands for this setting: Table 3, aerated samples, same system as triplet studies (1% pyridine in toluene), means of no less than four runs, compounds 8 and 9 run once.
Setting [7] is: irradiation conditions described, in words.

Structures are written as SMILES. Like-named read-outs stand apart in the source and are kept apart here.

On to `CCCCCCCCCCc1ccc(CCCCCCCCCC)c2c1C1=NC2=Nc2c3c(CCCCCCCCCC)ccc(CCCCCCCCCC)c3c3[n]2[Zn][n]2c(c4c(CCCCCCCCCC)ccc(CCCCCCCCCC)c4c2=NC2=NC(=N3)c3c(CCCCCCCCCC)ccc(CCCCCCCCCC)c32)=N1` [Example 1, 1,4,8,11,15,18,22,25-octakis-decylphthalocyaninato-zinc], for which, in data set [1] (THF, 701 nm), the molar absorption coefficient is given as 2.01×10^5 dm^3 mol^-1 cm^-1. For the same compound, the absorption maximum in data set [1] (cyclohexane) was 703 nm. Also, the “molar absorption coefficient (ε) at the absorption maximum” value in data set [1] (cyclohexane, 703 nm) is reported as “approximately 2.3×10^5 dm^3 mol^-1 cm^-1”. The fluorescence emission maximum in data set [1] (cyclohexane, excited at 703 nm) was 712 nm. Also, the “Singlet Oxygen Quantum Yield” value in data set [2] (setting [6]) is 0.73. Besides, the “Singlet Oxygen Quantum Yield” value in data set [2] (toluene/pyridine solution) was 0.73±0.06. Besides, in data set [3], the “Triplet Lifetime” value was determined as 50 μs and the “Triplet Quantum Yield” value is 0.67. Moreover, in data set [4], the accumulation in kidneys entry is “negligible amounts”, the liver concentrations entry is “comparatively low”, the “presence in cutaneous districts (skin)” value is given as “essentially no phthalocyanine is present” and the “recovery from the peritumoural tissue” value is recorded as “No detectable amount”. Moreover, in data set [4] (iv, 1.2 mg/kg, 3 h), the “Recovery, Kidney” value was 0.066 ± 0.008 μg of dye/g of tissue; the “Recovery, Liver” value is listed as 0.278 ± 0.053 μg of dye/g of tissue; the “Recovery, Serum” value is reported as 0.436 ± 0.324; the “Recovery, Tumour” value is listed as 0.073 μg of dye/g of tissue. Also, in data set [4] (iv, 1.2 mg/kg, 24 h), the “Recovery, Kidney” value is given as 0.O05 ± 0.002 μg of dye/g of tissue; the “Recovery, Liver” value is given as 0.673 ± 0.140 μg of dye/g of tissue; the “Recovery, Serum” value was 0.042 ± 0.015; the “Recovery, Skin” value is 0.008 ± 0.001 μg of dye/g of tissue. The “Recovery, Tumour” value in data set [4] (iv, 1.2 mg/kg, 24 h) is on record as 0.132 ± 0.022 μg of dye/g of tissue. Also, the “tumour growth delay compared with untreated tumour-bearing mice” value with MS-2 fibrosarcoma (2.4 mg/kg, irradiated 24 h post-injection, 600-700 nm, 400 J/cm^2) is reported as “significant delay in tumour growth”. Further, in the data set on MS-2 fibrosarcoma (6 h after irradiation, FIG. 1), the “damage of blood vessels (electron microscopy)” value was “less heavily damaged” and the “damage of tumour cells (electron microscopy)” value is listed as “extensive damage of tumour cells”. In addition, the “overall appearance of the tumour” value with MS-2 fibrosarcoma (24 h after irradiation) is recorded as “deeply haemorrhagic”. In addition, the “tissular damage (electron microscopy)” value in the data set on MS-2 fibrosarcoma (24 h after irradiation, FIG. 2) was “remarkably more extensive at 24 h after irradiation”. Further, in the data set with MS-2 fibrosarcoma (in words), the “damage of cell nuclei” value is reported as “extensive damage of cell nuclei” and the “tumour damage upon photoexcitation with red light” value is “sufficient for inducing an efficient tumour damage”. Further, in the data set with MS-2 fibrosarcoma (setting [7]), the “damage of blood capillaries” value is “appreciable damage of blood capillaries” and the “main target of photosensitization” value is listed as “malignant cells appear to be the main target”.
Take `CCCCCCCCCCc1ccc(CCCCCCCCCC)c2c1C1=NC2=Nc2c3c(CCCCCCCCCC)ccc(CCCCCCCCCC)c3c3[n]2[Zn][n]2c(c4c(CCCCCCCCCO)ccc(CCCCCCCCCO)c4c2=NC2=NC(=N3)c3c(CCCCCCCCCC)ccc(CCCCCCCCCC)c32)=N1` [Example 9, 1,4-Bis (9-Hydroxynonyl)-8,11,15,18,22,25-Hexadecylphthalocyaninato-Zinc]: in data set [2] (setting [6]), the “Singlet Oxygen Quantum Yield” value was determined as 0.80. Further, in data set [3], the “Triplet Quantum Yield” value stood at 0.70.
As for `[Zn+2].c1ccc2c(c1)-c1nc-2nc2[n-]c(nc3nc([n-]c4nc(n1)-c1ccccc1-4)-c1ccccc1-3)c1ccccc21` [Example 10, unsubstituted zinc phthalocyanine, reference compound], the “Singlet Oxygen Quantum Yield” value in data set [5] was “approximately 0.4”; in data set [2] (setting [6]), 0.50. In data set [3], the “Triplet Quantum Yield” value is reported as 0.45.

These data come from patent US6096734A, “Photosensitizers for sensitizing cells” (The Secretary of State for Defence in Her Britannic …, priority 1993, dated 2000).
